Reference: ChEMBL document CHEMBL1141325, “Pinpointing pseurotins from a marine-derived Aspergillus as tools for chemical genetics using a synthetic lethality yeast screen” (2007)
Calls of active or inactive are those of the source. No cut-off for these calls is given here.

Experiments:
[1] = tested on: Saccharomyces cerevisiae; assay: Cytotoxicity against wild-type Saccharomyces cerevisiae hof1delta mutant by yeast halo assay relative to control; assay type: functional
[2] = tested on: Saccharomyces cerevisiae; assay: Cytotoxicity against wild-type Saccharomyces cerevisiae by yeast halo assay relative to control; assay type: functional

SMILES	Activity [1]	Activity [2]	inhibition zone (IZ) [1] [mm]	inhibition zone (IZ) [2] [mm]
CC/C=C\[C@H](O)[C@H](O)C1=C(C)C(=O)[C@]2(O1)C(=O)N[C@@](OC)(C(=O)c1ccccc1)[C@@H]2O	inactive	inactive		
CC/C=C\[C@H](OC)[C@H](O)C1=C(C)C(=O)[C@]2(O1)C(=O)N[C@@](OC)(C(=O)c1ccccc1)[C@@H]2O [11-O-METHYLPSEUROTIN A]			9	4
